This is an account of results in patent US20230416275A1, “MODULATORS OF CYSTIC FIBROSIS TRANSMEMBRANE CONDUCTANCE REGULATOR” (VERTEX PHARMACEUTICALS INCORPORATED, priority 2020, published 2023).

The target in test [1] is CFTR-mediated chloride transport in human intestinal epithelial enteroid cells (Homo sapiens, UniProt P13569). Kind of test: Membrane potential dye, Enteroid Assay A. It counts as cell-based. The settings on record: for Ent. A Max Activity (%): % of chloride transport of triple combination control (3 μM N-[(6-amino-2-pyridyl)sulfonyl]-6-(3-fluoro-5-isobutoxy-phenyl)-2-[(4S)-2,2,4-trimethylpyrrolidin-1-yl]pyridine-3-carboxamide, 3 μM tezacaftor, 300 nM acute ivacaftor); for EC50: enteroid cells, 18-24 hours incubation, acute 10 μM forskolin and 300 nM ivacaftor, read-out: Ent. A EC50. The procedure: Base medium (ADF+++) consisted of Advanced DMEM/Ham's F12, 2 mM Glutamax, 10 mM HEPES, […] penicillin/streptomycin.
CFTR-mediated chloride transport in human intestinal epithelial enteroid cells, sequence (P13569 with tags, fused parts or gaps DEL508-508): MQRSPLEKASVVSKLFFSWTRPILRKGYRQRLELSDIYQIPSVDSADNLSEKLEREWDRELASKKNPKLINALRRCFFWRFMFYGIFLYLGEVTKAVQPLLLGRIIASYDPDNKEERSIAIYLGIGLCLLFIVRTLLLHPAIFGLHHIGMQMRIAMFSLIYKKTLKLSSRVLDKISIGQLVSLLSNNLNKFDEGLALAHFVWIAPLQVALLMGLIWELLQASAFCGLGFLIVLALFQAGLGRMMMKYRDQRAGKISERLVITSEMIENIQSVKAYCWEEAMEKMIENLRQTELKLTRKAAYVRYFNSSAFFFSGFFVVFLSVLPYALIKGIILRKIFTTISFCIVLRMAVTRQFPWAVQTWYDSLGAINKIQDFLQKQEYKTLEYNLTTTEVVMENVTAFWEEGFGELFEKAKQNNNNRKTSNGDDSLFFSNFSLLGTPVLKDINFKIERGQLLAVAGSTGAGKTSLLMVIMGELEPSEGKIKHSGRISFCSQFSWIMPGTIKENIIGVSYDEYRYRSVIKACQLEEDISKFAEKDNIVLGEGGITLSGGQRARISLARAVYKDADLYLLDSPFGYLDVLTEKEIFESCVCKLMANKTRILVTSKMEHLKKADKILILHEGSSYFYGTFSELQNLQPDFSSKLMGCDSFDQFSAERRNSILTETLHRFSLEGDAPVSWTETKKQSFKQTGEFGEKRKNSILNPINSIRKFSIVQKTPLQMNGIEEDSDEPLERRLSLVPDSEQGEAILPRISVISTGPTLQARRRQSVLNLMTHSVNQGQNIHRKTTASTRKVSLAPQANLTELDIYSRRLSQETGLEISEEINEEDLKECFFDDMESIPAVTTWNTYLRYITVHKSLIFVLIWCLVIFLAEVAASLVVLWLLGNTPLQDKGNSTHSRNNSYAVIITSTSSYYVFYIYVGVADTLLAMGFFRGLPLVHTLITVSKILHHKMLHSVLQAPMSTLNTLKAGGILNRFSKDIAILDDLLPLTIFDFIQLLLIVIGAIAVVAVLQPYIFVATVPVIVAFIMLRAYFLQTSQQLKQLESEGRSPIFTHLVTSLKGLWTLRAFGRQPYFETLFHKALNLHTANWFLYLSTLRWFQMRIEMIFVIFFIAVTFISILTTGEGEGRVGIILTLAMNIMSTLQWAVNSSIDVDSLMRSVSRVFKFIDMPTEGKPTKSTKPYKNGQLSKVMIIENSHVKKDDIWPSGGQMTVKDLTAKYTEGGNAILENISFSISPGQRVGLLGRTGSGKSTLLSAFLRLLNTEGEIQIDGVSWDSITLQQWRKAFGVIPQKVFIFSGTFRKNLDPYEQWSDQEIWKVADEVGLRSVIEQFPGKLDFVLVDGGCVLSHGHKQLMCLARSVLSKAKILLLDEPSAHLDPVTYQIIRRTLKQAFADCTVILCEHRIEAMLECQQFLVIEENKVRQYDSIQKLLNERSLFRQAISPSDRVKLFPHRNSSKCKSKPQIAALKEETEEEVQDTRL
Intestinal enteroid maintenance medium (IEMM) consisted of ADF+++, 1×B27 supplement, 1×N2 supplement, 1.25 mM N-acetyl cysteine, 10 mM Nicotinamide, 50 ng/mL hEGF, 10 nM Gastrin, 1 μg/mL hR-spondin-1, 100 ng/mL hNoggin, TGF-b type 1 inhibitor A-83-01, 100 μg/mL Primocin, 10 μM P38 MAPK inhibitor SB202190.
Bath 1 Buffer consisted of 1 mM MgCl2, 160 mM NaCl, 4.5 mM KCl, 10 mM HEPES, 10 mM Glucose, 2 mM CaCl2.
Chloride Free Buffer consisted of 1 mM Magnesium Gluconate, 2 mM Calcium Gluconate, 4.5 mM Potassium Gluconate, 160 mM Sodium Gluconate, 10 mM HEPES, 10 mM Glucose.
Bath1 Dye Solution consisted of Bath 1 Buffer, 0.04% Pluronic F127, 20 μM Methyl Oxonol, 30 μM CaCCinh-A01, 30 μM Chicago Sky Blue.
Chloride Free Dye Solution consisted of Chloride Free Buffer, 0.04% Pluronic F127, 20 μM Methyl Oxonol, 30 μM CaCCinh-A01, 30 μM Chicago Sky Blue.
Chloride Free Dye Stimulation Solution consisted of Chloride Free Dye Solution, 10 μM forskolin, 100 μM IBMX, and 300 nM Compound III.
Human intestinal epithelial enteroid cells were obtained from the Hubrecht Institute for Developmental Biology and Stem Cell Research, Utrecht, The Netherlands and expanded in T-Flasks as previously described (Dekkers J F, Wiegerinck C L, de Jonge H R, Bronsveld I, Janssens H M, de Winter-de Groot K M, Brandsma A M, de Jong N W M, Bijvelds M J C, Scholte B J, Nieuwenhuis E E S, van den Brink S, Clevers H, van der Ent C K, Middendorp S and M Beekman J M. A functional CFTR assay using primary cystic fibrosis intestinal organoids. Nat Med. 2013 July; 19(7):939-45).
c. Enteroid Cell Harvesting and Seeding
Cells were recovered in cell recovery solution, collected by centrifugation at 650 rpm for 5 minutes at 4° C., resuspended in TrypLE and incubated for 5 minutes at 37° C. Cells were then collected by centrifugation at 650 rpm for 5 minutes at 4° C. and resuspended in IEMM containing 10 μM ROCK inhibitor (RI). The cell suspension was passed through a 40 μm cell strainer and resuspended at 1×10^6 cells/mL in IEMM containing 10 μM RI. Cells were seeded at 5000 cells/well into multi-well plates and incubated for overnight at 37° C., 95% humidity and 5% CO2 prior to assay.
d. Membrane Potential Dye, Enteroid Assay A
Enteroid cells were incubated with test compound in IEMM for 18-24 hours at 37° C., 95% humidity and 5% CO2. […] Briefly, cells were washed 5 times in Bath 1 Buffer. Bath 1 Dye Solution was added, and the cells were incubated for 25 minutes at room temperature. Following dye incubation, cells were washed 3 times in Chloride Free Dye Solution. Chloride transport was initiated by addition of Chloride Free Dye Stimulation Solution and the fluorescence signal was read for 15 minutes. […] Chloride transport was then expressed as a percentage of the chloride transport following treatment with 3 μM N-[(6-amino-2-pyridyl)sulfonyl]-6-(3-fluoro-5-isobutoxy-phenyl)-2-[(4S)-2,2,4-trimethylpyrrolidin-1-yl]pyridine-3-carboxamide, 3 μM (R)-1-(2,2-difluorobenzo[d][1,3]dioxol-5-yl)-N-(1-(2,3-dihydroxypropyl)-6-fluoro-2-(1-hydroxy-2-methylpropan-2-yl)-1H-indol-5-yl)cyclopropanecarboxamide and 300 nM acute N-[2,4-bis(1,1-dimethylethyl)-5-hydroxyphenyl]-1,4-dihydro-4-oxoquinoline-3-carboxamide triple combination control (% Activity).

In the next test the target is T1, F508del in NIH 3T3 cells (Homo sapiens, UniProt P13569, DEL508-508).
T1 construct: expressed in transfected cells
T1 sequence (P13569 with tags, fused parts or gaps DEL508-508): as above
Put plainly: 3T3 assay: membrane potential optical assay for F508del correction. It counts as cell-based, mouse. The following applies: for EC50 / 3T3 Max Activity (%): F508del NIH 3T3 cells; for EC50: compound incubation 18-24 hours at 37° C., forskolin activation, read-out: 3T3 EC50; for Emax: NIH3T3, F508del NIH 3T3 cells, read-out: 3T3 Max Activity (%); for Emax / 3T3 Max Activity (%): efficacy compared to lumacaftor in combination with acutely added 300 nM Ivacaftor. From the text: a. Membrane Potential Optical Methods for Assaying F508del Modulation Properties of Compounds
The assay utilizes fluorescent voltage sensing dyes to measure changes in membrane potential using a fluorescent plate reader (e.g., FLIPR III, Molecular Devices, Inc.) as a readout for increase in functional F508del in NIH 3T3 cells. The driving force for the response is the creation of a chloride ion gradient in conjunction with channel activation by a single liquid addition step after the cells have previously been treated with compounds and subsequently loaded with a voltage sensing dye.
b. Identification of Corrector Compounds
To identify correctors of F508del, a single-addition HTS assay format was developed. This HTS assay utilizes fluorescent voltage sensing dyes to measure changes in membrane potential on the FLIPR III as a measurement for increase in gating (conductance) of F508del in F508del NIH 3T3 cells. The F508del NIH 3T3 cell cultures were incubated with the corrector compounds at a range of concentrations for 18-24 hours at 37° C., and subsequently loaded with a redistribution dye. The driving force for the response is a Cl^− ion gradient in conjunction with channel activation with forskolin in a single liquid addition step using a fluorescent plate reader such as FLIPR III.
Bath Solution #1: (in mM) NaCl 160, KCl 4.5, CaCl2 2, MgCl2 1, HEPES 10, pH 7.4 with NaOH.
Chloride-free bath solution: Chloride salts in Bath Solution #1 (above) are substituted with gluconate salts.
NIH3T3 mouse fibroblasts stably expressing F508del are used for optical measurements of membrane potential. The cells are maintained at 37° C. in 5% CO2 and 90% humidity in Dulbecco's modified Eagle's medium supplemented with 2 mM glutamine, 10% fetal bovine serum, 1×NEAA, b-ME, 1× pen/strep, and 25 mM HEPES in 175 cm^2 culture flasks. For all optical assays, the cells were seeded at ˜20,000/well in 384-well Matrigel-coated plates. For the correction assays, the cells are cultured at 37° C. with and without compounds for 16-24 hours.

Turning to `Cc1cccc(C)c1-c1cc2nc(n1)NS(=O)(=O)c1cccc(c1)NC(=O)[C@H]1C[C@H](CN(C(=O)OC(C)(C)C)C1)O2` (single isomer, unassigned) [Compound 1], the “Ent. A Max Activity (%)” value in test [1] was “+ (+ is <30%)”. In addition, at F508del in NIH 3T3 cells, the EC50 (usually the midpoint of the concentration-response curve) is less than 1 µM and the Emax lay in the range of 30 to 60%.
Turning to `Cc1cccc(C)c1-c1cc2nc(n1)NS(=O)(=O)c1cccc(c1)NC(=O)[C@@H]1C[C@@H](CN(C(=O)OC(C)(C)C)C1)O2` (single isomer, unassigned) [Compound 2], in test [1], the “Ent. A Max Activity (%)” value is “+++ (+++ is >60%)” and the EC50 is less than 1 µM. For the same compound, on F508del in NIH 3T3 cells, the EC50 is less than 1 µM and the Emax is more than 60%.
As to `Cc1cccc(C)c1-c1cc2nc(n1)NS(=O)(=O)c1cccc(c1)NC(=O)[C@@H]1C[C@H](CN(C(=O)OC(C)(C)C)C1)O2` (single isomer, unassigned) [Compound 3], in test [1], the “Ent. A Max Activity (%)” value is listed as “+ (+ is <30%)” and the EC50 was in the range of 1 to 3 µM. Moreover, on F508del in NIH 3T3 cells, the EC50 was 1 to 3 µM and the Emax is more than 60%.
As for `Cc1cccc(C)c1-c1cc2nc(n1)NS(=O)(=O)c1cccc(c1)NC(=O)[C@H]1CCC[C@H](C1)O2` (single isomer, unassigned) [Compound 68, 5-(2,6-dimethylphenyl)-9,9-dioxo-2-oxa-9λ^6-thia-6,8,15,23-tetraazatetracyclo[15.3.1.13,7.110,14]tricosa-3,5,7(23),10(22),11,13-hexaen-16-one], in test [1], the “Ent. A Max Activity (%)” value is recorded as “++ (++ is 30-60%)” and the 50% effective concentration (EC50) is 3 to 30 µM. Besides, at F508del in NIH 3T3 cells, the concentration giving a half-maximal response (EC50) was less than 1 µM and the Emax was more than 60%.
Turning to `Cc1cccc(C)c1-c1cc2nc(n1)NS(=O)(=O)c1cccc(c1)NC(=O)[C@H]1CCC[C@H](C1)O2` (single isomer, unassigned) [Compound 69, 5-(2,6-dimethylphenyl)-9,9-dioxo-2-oxa-9λ^6-thia-6,8,15,23-tetraazatetracyclo[15.3.1.13,7.110,14]tricosa-3,5,7(23),10(22),11,13-hexaen-16-one], in test [1], the “Ent. A Max Activity (%)” value is “++ (++ is 30-60%)” and the EC50 is 1 to 3 µM. In addition, at F508del in NIH 3T3 cells, the EC50 was less than 1 µM and the “3T3 Max Activity (%)” value was “+++ (+++ is >60%)”.
Turning to `Cc1cccc(C)c1-c1cc2nc(n1)NS(=O)(=O)c1cccc(c1)NC(=O)[C@H]1CCC[C@H](C1)O2` (single isomer, unassigned) [Compound 70, 5-(2,6-Dimethylphenyl)-9,9-dioxo-2-oxa-9λ^6-thia-6,8,15,23-tetraazatetracyclo[15.3.1.13,7.110,14]tricosa-3,5,7(23),10(22),11,13-hexaen-16-one], in test [1], the “Ent. A Max Activity (%)” value is listed as “++ (++ is 30-60%)” and the EC50 was 1 to 3 µM. Further, at F508del in NIH 3T3 cells, the EC50 lay within 1 to 3 µM and the “3T3 Max Activity (%)” value was “+++ (+++ is >60%)”.
For the compound `Cc1cccc(C)c1-c1cc2nc(n1)NS(=O)(=O)c1cccc(c1)NC(=O)[C@H]1CCC[C@H](C1)O2` (single isomer, unassigned) [Compound 71, 5-(2,6-dimethylphenyl)-9,9-dioxo-2-oxa-9λ^6-thia-6,8,15,23-tetraazatetracyclo[15.3.1.13,7.110,14]tricosa-3,5,7(23),10(22),11,13-hexaen-16-one], in test [1], the “Ent. A Max Activity (%)” value was “+++ (+++ is >60%)” and the concentration for a half-maximal effect (EC50) was in the range of 1 to 3 µM. For the same compound, on F508del in NIH 3T3 cells, the EC50 lay in the range of 1 to 3 µM and the “3T3 Max Activity (%)” value is reported as “+++ (+++ is >60%)”.
As to `CCCCCCN1C[C@@H]2C[C@H](C1)C(=O)Nc1cccc(c1)S(=O)(=O)Nc1nc(cc(-c3c(C)cccc3C)n1)O2` [Compound 41], in test [1], the “Ent. A Max Activity (%)” value is given as “+++ (+++ is >60%)” and the EC50 is less than 1 µM.
With `Cc1cccc(C)c1-c1cc2nc(n1)NS(=O)(=O)c1cccc(c1)NC(=O)C1CN(C(=O)OC(C)(C)C)CCC1O2` (stereo not drawn) [Compound 78], in test [1], the “Ent. A Max Activity (%)” value is “++ (++ is 30-60%)” and the EC50 was 1 to 3 µM.
Turning to `Cc1cccc(C)c1-c1cc2nc(n1)NS(=O)(=O)c1cccc(c1)NC(=O)[C@H]1C[C@H](CN1C(=O)OC(C)(C)C)O2` [Compound 79], the “Ent. A Max Activity (%)” value in test [1] was “+ (+ is <30%)”.
In the case of `Cc1cccc(C)c1-c1cc2nc(n1)NS(=O)(=O)c1cccc(c1)NC(=O)[C@@H]1C[C@@H](CN1C(=O)OC(C)(C)C)O2` [Compound 80], the “Ent. A Max Activity (%)” value in test [1] is “+ (+ is <30%)”.
In the case of `Cc1cccc(C)c1-c1cc2nc(n1)NS(=O)(=O)c1cccc(c1)NC(=O)[C@@H]1C[C@H](O2)C(=O)N(CCC(C)(C)C)C1` [Compound 88], in test [1], the “Ent. A Max Activity (%)” value is “++ (++ is 30-60%)” and the EC50 lay in the range of 3 to 30 µM.
For `Cc1cccc(C)c1-c1cc2nc(n1)NS(=O)(=O)c1cccc(c1)NC(=O)[C@@H]1C[C@H](O2)C(=O)N(CCC(C)(C)C)C1` [Compound 89], in test [1], the “Ent. A Max Activity (%)” value is “+ (+ is <30%)”.
On to `Cc1cccc(C)c1-c1cc2nc(n1)NS(=O)(=O)c1cccc(c1)NC(=O)[C@@H]1C[C@H](O2)C(=O)N(CCC(C)(C)C)C1` [Compound 90], for which, in test [1], the “Ent. A Max Activity (%)” value is “++ (++ is 30-60%)” and the 50% effective concentration (EC50) fell in the range of 3 to 30 µM.
In the case of `Cc1cccc(C)c1-c1cc2nc(n1)NS(=O)(=O)c1cccc(c1)NC(=O)[C@@H]1C[C@H](O2)C(=O)N(CCC(C)(C)C)C1` [Compound 91], in test [1], the “Ent. A Max Activity (%)” value is reported as “+ (+ is <30%)” and the 50% effective concentration (EC50) fell in the range of 3 to 30 µM.
Regarding `Cc1cccc(C)c1-c1cc2nc(n1)NS(=O)(=O)c1cccc(c1)NC(=O)C1CC(O2)C(=O)N(CCC(C)(C)C)C1` (stereo not drawn) [Compound 92], in test [1], the “Ent. A Max Activity (%)” value is “+ (+ is <30%)”.
For the compound `Cc1cccc(C)c1-c1cc2nc(n1)NS(=O)(=O)c1cccc(c1)NC(=O)C1CC(O2)C(=O)N(CCC(C)(C)C)C1` (stereo not drawn) [Compound 93], the “Ent. A Max Activity (%)” value in test [1] is recorded as “++ (++ is 30-60%)”.
